Test results reported in ChEMBL document CHEMBL1149697, “Identification of dissociated non-steroidal glucocorticoid receptor agonists” (Bioorg Med Chem Lett, 2007).

Assays:
Glucocorticoid receptor = molecular target: T1, Glucocorticoid receptor (Homo sapiens, UniProt P04150)
T1 sequence (P04150 whole entry): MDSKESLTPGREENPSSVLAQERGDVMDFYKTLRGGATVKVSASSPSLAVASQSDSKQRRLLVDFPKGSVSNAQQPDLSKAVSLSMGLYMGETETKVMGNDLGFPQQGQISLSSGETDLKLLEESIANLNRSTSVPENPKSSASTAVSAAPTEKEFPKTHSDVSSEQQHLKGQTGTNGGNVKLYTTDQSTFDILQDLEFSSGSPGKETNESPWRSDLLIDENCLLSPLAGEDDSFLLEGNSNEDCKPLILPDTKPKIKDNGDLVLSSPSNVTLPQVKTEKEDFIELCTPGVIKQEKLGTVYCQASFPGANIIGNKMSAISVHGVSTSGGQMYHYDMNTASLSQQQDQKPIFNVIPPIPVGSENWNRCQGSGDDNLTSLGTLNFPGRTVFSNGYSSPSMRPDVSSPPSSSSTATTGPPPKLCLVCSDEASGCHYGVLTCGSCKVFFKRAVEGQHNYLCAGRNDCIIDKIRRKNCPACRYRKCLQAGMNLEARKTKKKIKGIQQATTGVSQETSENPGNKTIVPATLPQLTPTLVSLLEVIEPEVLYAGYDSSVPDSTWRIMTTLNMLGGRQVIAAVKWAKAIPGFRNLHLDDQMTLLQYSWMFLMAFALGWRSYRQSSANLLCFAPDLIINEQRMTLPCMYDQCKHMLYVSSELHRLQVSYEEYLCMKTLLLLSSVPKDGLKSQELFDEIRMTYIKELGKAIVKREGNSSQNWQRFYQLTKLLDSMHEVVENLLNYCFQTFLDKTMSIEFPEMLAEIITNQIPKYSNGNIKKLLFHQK

Progesterone receptor = molecular target: T2, Progesterone receptor (Homo sapiens, UniProt P06401); test: Displacement of TAMRA labeled mifepristone at human progesterone receptor in insect cell
T2 sequence (P06401 whole entry): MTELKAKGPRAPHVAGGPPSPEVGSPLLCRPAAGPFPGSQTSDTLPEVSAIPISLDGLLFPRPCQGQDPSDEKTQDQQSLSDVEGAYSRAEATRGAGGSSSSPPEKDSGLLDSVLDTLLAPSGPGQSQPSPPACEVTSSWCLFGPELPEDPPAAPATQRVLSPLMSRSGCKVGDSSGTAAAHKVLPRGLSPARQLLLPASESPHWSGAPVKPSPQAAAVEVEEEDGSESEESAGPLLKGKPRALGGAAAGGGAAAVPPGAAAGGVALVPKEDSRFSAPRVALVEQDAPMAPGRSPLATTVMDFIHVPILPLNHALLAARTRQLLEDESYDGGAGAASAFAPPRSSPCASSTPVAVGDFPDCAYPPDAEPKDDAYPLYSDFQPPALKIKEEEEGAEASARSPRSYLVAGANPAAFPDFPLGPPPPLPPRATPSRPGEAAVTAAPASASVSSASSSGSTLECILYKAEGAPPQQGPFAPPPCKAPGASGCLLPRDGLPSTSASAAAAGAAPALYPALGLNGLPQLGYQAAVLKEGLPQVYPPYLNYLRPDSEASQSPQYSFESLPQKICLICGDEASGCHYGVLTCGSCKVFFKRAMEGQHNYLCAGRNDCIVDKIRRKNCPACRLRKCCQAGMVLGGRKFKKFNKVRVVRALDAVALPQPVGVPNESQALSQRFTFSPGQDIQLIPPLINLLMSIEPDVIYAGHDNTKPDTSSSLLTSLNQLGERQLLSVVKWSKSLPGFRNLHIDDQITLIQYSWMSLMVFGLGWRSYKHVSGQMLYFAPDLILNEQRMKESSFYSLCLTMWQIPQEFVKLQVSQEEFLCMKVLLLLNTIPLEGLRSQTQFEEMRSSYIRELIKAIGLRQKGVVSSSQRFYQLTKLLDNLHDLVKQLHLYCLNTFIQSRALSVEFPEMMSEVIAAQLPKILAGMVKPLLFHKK

[1] = molecular target: T3, Mineralocorticoid receptor (Homo sapiens, UniProt P08235); test: Displacement of TAMRA labeled dexamethasone at human mineralocorticoid receptor in insect cell
T3 sequence (P08235 whole entry): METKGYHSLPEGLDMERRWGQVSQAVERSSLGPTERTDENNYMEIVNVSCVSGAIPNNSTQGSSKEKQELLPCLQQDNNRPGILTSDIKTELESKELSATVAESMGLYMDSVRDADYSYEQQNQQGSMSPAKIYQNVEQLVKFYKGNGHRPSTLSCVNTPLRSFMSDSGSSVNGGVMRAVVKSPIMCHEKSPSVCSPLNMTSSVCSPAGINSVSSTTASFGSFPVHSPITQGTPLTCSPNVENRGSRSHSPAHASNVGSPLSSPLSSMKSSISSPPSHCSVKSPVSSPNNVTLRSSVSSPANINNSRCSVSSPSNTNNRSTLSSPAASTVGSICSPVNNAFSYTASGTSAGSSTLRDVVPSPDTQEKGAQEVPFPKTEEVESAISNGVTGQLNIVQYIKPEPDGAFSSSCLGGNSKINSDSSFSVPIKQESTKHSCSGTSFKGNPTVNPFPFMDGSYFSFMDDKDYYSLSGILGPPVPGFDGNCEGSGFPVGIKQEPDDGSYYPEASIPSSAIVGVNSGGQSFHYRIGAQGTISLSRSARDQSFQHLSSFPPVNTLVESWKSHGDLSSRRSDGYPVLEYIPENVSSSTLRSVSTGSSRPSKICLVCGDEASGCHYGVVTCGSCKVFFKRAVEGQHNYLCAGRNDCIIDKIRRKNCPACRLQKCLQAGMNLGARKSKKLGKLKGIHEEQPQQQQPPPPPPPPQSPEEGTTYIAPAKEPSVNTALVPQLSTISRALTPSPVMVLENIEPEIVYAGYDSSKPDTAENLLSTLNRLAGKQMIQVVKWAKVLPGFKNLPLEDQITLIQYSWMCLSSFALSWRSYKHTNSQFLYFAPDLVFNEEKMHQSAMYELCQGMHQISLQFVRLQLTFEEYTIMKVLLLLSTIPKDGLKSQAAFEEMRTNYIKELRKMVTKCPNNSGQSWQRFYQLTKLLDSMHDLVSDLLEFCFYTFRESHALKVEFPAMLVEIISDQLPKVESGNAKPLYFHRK

HFF [2] = test: Antiinflammatory activity assessed as upregulation of aromatase in HFF cells by transactivation assay; assay type: functional, cell-based; conditions: Homo sapiens
HFF [3] = test: Antiinflammatory activity assessed as inhibition of IL1 stimulated IL6 production in HFF cells by transrepression assay; assay type: functional, cell-based; conditions: Homo sapiens
HFF [4] = test: Antiinflammatory activity assessed as inhibition of IL6 production in HFF cells by transrepression assay relative to dexamethasone; assay type: functional, Homo sapiens

## COc1ccc(F)cc1C(C)(C)CC(O)(Cc1c(Cl)cccc1Cl)C(F)(F)F (centres undefined)
Glucocorticoid receptor
  IC50: 580 nM
Progesterone receptor
  IC50: > 2000 nM
[1]
  IC50: 1100 nM

## COc1ccc(F)cc1C(C)(C)CC(O)(Cc1ccc(C)cc1)C(F)(F)F (centres undefined)
Glucocorticoid receptor
  IC50: 945 nM
Progesterone receptor
  IC50: > 2000 nM
[1]
  IC50: > 2000 nM

## COc1ccc(F)cc1C(C)(C)CC(O)(Cc1cccc2ccccc12)C(F)(F)F (centres undefined)
Glucocorticoid receptor
  IC50: 120 nM
Progesterone receptor
  IC50: > 2000 nM
[1]
  IC50: 1400 nM

## COc1ccc(F)cc1C(C)(C)CC(O)(Cc1cccc(C#N)c1)C(F)(F)F (centres undefined)
Glucocorticoid receptor
  IC50: 81 nM
Progesterone receptor
  IC50: > 2000 nM
[1]
  IC50: 400 nM

## COc1ccc(F)cc1C(C)(C)CC(O)(Cc1ccc(Cl)cc1)C(F)(F)F (centres undefined)
Glucocorticoid receptor
  IC50: 340 nM
Progesterone receptor
  IC50: > 2000 nM
[1]
  IC50: 1800 nM

## C[C@@H]1C[C@H]2[C@@H]3CCC4=CC(=O)C=C[C@]4(C)[C@@]3(F)[C@@H](O)C[C@]2(C)[C@@]1(O)C(=O)CO [DEXAMETHASONE]
HFF [2]
  EC50: 2 nM
HFF [3]
  EC50: 0.5 nM

## COc1ccc(F)cc1C(C)(C)CC(O)(Cc1ccc(C=O)cc1Cl)C(F)(F)F (centres undefined)
Glucocorticoid receptor
  IC50: 19 nM
Progesterone receptor
  IC50: 1800 nM
[1]
  IC50: 345 nM

## COc1ccc(F)cc1C(C)(C)CC(O)(Cc1ccccc1F)C(F)(F)F (centres undefined)
Glucocorticoid receptor
  IC50: 370 nM
Progesterone receptor
  IC50: > 2000 nM
[1]
  IC50: 1350 nM

## COc1ccc(F)cc1C(C)(C)CC(O)(Cc1ccc(C=O)cc1)C(F)(F)F (centres undefined)
Glucocorticoid receptor
  IC50: 20 nM
Progesterone receptor
  IC50: > 2000 nM
[1]
  IC50: 650 nM

## COc1ccc(F)cc1C(C)(C)CC(O)(Cc1cc(Cl)ccc1Cl)C(F)(F)F (centres undefined)
Glucocorticoid receptor
  IC50: 45 nM
Progesterone receptor
  IC50: > 2000 nM
[1]
  IC50: 535 nM

## COc1ccc(F)cc1C(C)(C)CC(O)(Cc1ccccc1)C(F)(F)F (centres undefined)
Glucocorticoid receptor
  IC50: 610 nM
Progesterone receptor
  IC50: > 1300 nM
[1]
  IC50: > 1300 nM

## COc1ccc(F)cc1C(C)(C)CC(O)(Cc1cccc(Cl)c1)C(F)(F)F (centres undefined)
Glucocorticoid receptor
  IC50: 550 nM
Progesterone receptor
  IC50: > 2000 nM
[1]
  IC50: > 2000 nM

## COc1ccc(F)cc1C(C)(C)CC(O)(c1ccccc1)C(F)(F)F (centres undefined)
Glucocorticoid receptor
  IC50: > 1600 nM
Progesterone receptor
  IC50: > 1600 nM
[1]
  IC50: 1600 nM

## COc1ccc(F)cc1C(C)(C)CC(O)(CCc1ccccc1)C(F)(F)F (centres undefined)
Glucocorticoid receptor
  IC50: > 1300 nM
Progesterone receptor
  IC50: > 1300 nM
[1]
  IC50: > 1300 nM

## COc1ccc(F)cc1C(C)(C)CC(O)(Cc1ccc(Cl)cc1Cl)C(F)(F)F (centres undefined)
Glucocorticoid receptor
  IC50: 68 nM
Progesterone receptor
  IC50: 665 nM
[1]
  IC50: 875 nM

## COc1ccc(F)cc1C(C)(C)CC(O)(CCCc1ccccc1)C(F)(F)F (centres undefined)
Glucocorticoid receptor
  IC50: 1130 nM
Progesterone receptor
  IC50: > 740 nM
[1]
  IC50: > 740 nM

## COc1ccc(F)cc1C(C)(C)CC(O)(Cc1ccc(C)c2ccccc12)C(F)(F)F (centres undefined)
HFF [4]
  Efficacy: 9%
Glucocorticoid receptor
  IC50: 58 nM
HFF [3]
  EC50: > 2000 nM
Progesterone receptor
  IC50: 1200 nM
[1]
  IC50: 1050 nM

## COc1ccc(F)cc1C(C)(C)CC(O)(Cc1ccccc1C)C(F)(F)F (centres undefined)
Glucocorticoid receptor
  IC50: 855 nM
Progesterone receptor
  IC50: > 1130 nM
[1]
  IC50: > 1130 nM

## COc1ccc(F)cc1C(C)(C)CC(O)(Cc1cccc(Cl)c1Cl)C(F)(F)F (centres undefined)
Glucocorticoid receptor
  IC50: 76 nM
Progesterone receptor
  IC50: 1300 nM
[1]
  IC50: 900 nM

## COc1ccc(F)cc1C(C)(C)CC(O)(Cc1c(C)ccc2ccccc12)C(F)(F)F (centres undefined)
Glucocorticoid receptor
  IC50: 64 nM
Progesterone receptor
  IC50: > 2000 nM
[1]
  IC50: 450 nM

## COc1ccc(F)cc1C(C)(C)CC(O)(Cc1ccccc1Br)C(F)(F)F (centres undefined)
Glucocorticoid receptor
  IC50: 205 nM
Progesterone receptor
  IC50: > 512 nM
[1]
  IC50: > 512 nM

## COc1ccc(F)cc1C(C)(C)CC(O)(Cc1ccc2ccccc2c1)C(F)(F)F (centres undefined)
Glucocorticoid receptor
  IC50: 275 nM
Progesterone receptor
  IC50: > 2000 nM
[1]
  IC50: > 2000 nM

## COc1ccc(F)cc1C(C)(C)CC(O)(Cc1cc(Cl)cc(Cl)c1)C(F)(F)F (centres undefined)
Glucocorticoid receptor
  IC50: 60 nM
Progesterone receptor
  IC50: > 2000 nM
[1]
  IC50: 760 nM

## COc1ccc(F)cc1C(C)(C)CC(O)(Cc1ccccc1Cl)C(F)(F)F (centres undefined)
Glucocorticoid receptor
  IC50: 101 nM
Progesterone receptor
  IC50: > 2000 nM
[1]
  IC50: 715 nM

## COc1ccc(F)cc1C(C)(C)CC(O)(Cc1cccc(C)c1)C(F)(F)F (centres undefined)
Glucocorticoid receptor
  IC50: 580 nM
Progesterone receptor
  IC50: > 1050 nM
[1]
  IC50: > 1050 nM

## COc1ccc(CC(O)(CC(C)(C)c2cc(F)ccc2OC)C(F)(F)F)cc1 (centres undefined)
Glucocorticoid receptor
  IC50: 1250 nM
Progesterone receptor
  IC50: > 1420 nM
[1]
  IC50: > 1420 nM
